Each structure is given as a SMILES string. Values after ≈ are worked out from the molar mass of the structure shown.

We go through one molecule from US20030054047A1 (priority 2001, published 2003).

The test system of assay [1] is Influenza virus A/90-15. The assay is described as follows: Preventive assay: MDCK cells pre-treated 24 hours, then infected, influenza A. Format: cell-based, Influenza virus type A (H3N2) strain Jifeng A/90-15. As to conditions: drug added 24 hours before infection. The procedure: (§1) Preventive assay: Cell culture plate pre-treated with different concentrations of sample solutions for 24 hours, washed out the drugs, then infected with viruses, incubated, washed, observed and calculated the inhibition % as above.

The test system of assay [2] is Influenza virus A/90-15. The assay is described as follows: microbe, parasite or virus in culture. Format: cell-based, Influenza virus type A (H3N2) strain Jifeng A/90-15.
Assay [3] deals with Influenza virus B/97-13. The assay is described as follows: Preventive assay: MDCK cells pre-treated 24 hours, then infected, influenza B. It is filed as cell-based, Influenza virus type B strain Jifeng B/97-13. As to conditions: drug added 24 hours before infection. The procedure: as §1
The subject of assay [4] is Influenza virus B/97-13. The assay is described as follows: microbe, parasite or virus in culture. Format: cell-based, Influenza virus type B strain Jifeng B/97-13.

For `NC(=O)c1ncn([C@@H]2O[C@H](CO)[C@@H](O)[C@H]2O)n1` [Ribavirin, 1-β-D-ribafuranosyl-1,2,4-triazole-3-carboxamide], the “Activity on pretreatment for 24 hours (in words)” value in assay [1] and in assay [3] was “effective” in each case. Also, the “Inhibition of virus CPE (in words)” value in assay [2] and in assay [4] was “effective” each time. Besides, the IC50 in assay [2] (unidentified influenza virus, MDCK, read-out: Influenza virus A/90-15 IC50) was 70 ± 40 µg/mL (≈ 287 µM); in assay [4] (unidentified influenza virus, MDCK, read-out: Influenza virus B/97-13 IC50) it was 60 ± 30 µg/mL (≈ 246 µM).
